Experimental data published in PubChem BioAssay (NCI).
Values joined by “and” are separate entries in the source; they are usually repeats but may differ in a detail not shown here. Equal values may be shown once.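 All cell lines were grown in 96-well plates and treated with compound for 48 hours. GI50 marks 50% less growth. TGI denotes the concentration required for complete inhibition of growth.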

Experiments:
Assay in all cases: inhibition of tumour cell growth, NCI panel, 48 h
[1] = test system: RPMI-8226 leukemia
[2] = test system: OVCAR-8 ovarian
[3] = test system: MOLT-4 leukemia
[4] = test system: NCI-H460 lung
[5] = test system: NCI/ADR-RES ovarian
[6] = test system: SN12C renal
[7] = test system: A549 NSCLC
[8] = test system: OVCAR-4 ovarian
[9] = test system: COLO 205 colon
[10] = test system: HL-60(TB) leukemia

Row | Structure (SMILES) | TGI [1] | TGI [2] | TGI [3] | TGI [4] | TGI [5] | TGI [6] | TGI [7] | TGI [8] | TGI [9] | TGI [10] | GI50 [1] | GI50 [2] | GI50 [3] | GI50 [4] | GI50 [5] | GI50 [6] | GI50 [7] | GI50 [8] | GI50 [9] | GI50 [10]
1 | OC1C[C@H](c2ccccc2)C2(C(O)c3ccccc3C2O)[C@@H](c2ccccc2)C1 (some centres not stated) | > 100 µM | > 100 µM | > 100 µM | > 100 µM | > 100 µM | > 100 µM | > 100 µM | > 100 µM | > 100 µM | > 100 µM | – | – | – | – | – | – | – | – | – | –
2 | C=CCC(C(=O)Nc1cccc2[nH]cnc12)C(=O)OCC (configuration not stated) | > 100 µM | > 100 µM | > 100 µM | > 100 µM | > 100 µM | > 100 µM | > 100 µM | > 100 µM | – | > 100 µM | – | – | – | – | – | – | – | – | – | –
3 | CCC(NC1=NCCO1)c1cccs1 (configuration not stated) | > 100 µM | 30.3 µM | > 100 µM | 46 µM | > 100 µM | – | 28.1 µM | 44.5 µM | 34.9 µM | 82.7 µM | – | – | – | – | – | – | – | – | – | –
4 | Cc1cn(S(=O)(=O)c2ccccc2)c2c(OCc3ccccc3)cc(NS(C)(=O)=O)cc12 | > 63.7 µM | > 100 µM | > 24.8 µM | > 100 µM | > 100 µM | > 70.2 µM | > 100 µM | > 100 µM | 77.2 µM | > 20.6 µM | – | – | – | – | – | – | – | – | – | –
5 | NC(N)=NCCCC(NC(=O)OCCCCn1ccc(N)nc1=O)C(=O)O (configuration not stated) | > 100 µM | – | > 100 µM | > 100 µM | > 100 µM | > 100 µM | > 100 µM | > 100 µM | > 100 µM | > 100 µM | – | – | – | – | – | – | – | – | – | –
6 | C=CCn1c(-c2ccc([N+](=O)[O-])cc2)csc1=N | – | > 100 µM | – | > 100 µM | > 100 µM | > 100 µM | > 100 µM | > 100 µM | > 100 µM | 45.2 µM | – | – | – | – | – | – | – | – | – | –
7 | Cn1c(O)c(C=Nc2ccccc2Cl)c(=O)n(C)c1=O | 51.7 µM | > 100 µM | 61.5 µM | 32.8 µM | > 100 µM | > 100 µM | > 100 µM | 98.6 µM | > 100 µM | – | – | – | – | – | – | – | – | – | – | –
8 | CC(=O)OC1COC(Nc2nc(N)n(C)c(=O)c2N=O)C(OC(C)=O)C1OC(C)=O (configuration not stated) | > 10 µM | > 10 µM | > 10 µM | > 10 µM | > 10 µM | > 10 µM | > 10 µM | > 10 µM | > 10 µM | > 10 µM | – | – | – | – | – | – | – | – | – | –
9 | CC1=NN(c2nc(N)nc(CF)n2)C(C)(C)C1 | > 100 µM | > 100 µM | > 100 µM | > 100 µM | > 100 µM | – | – | > 100 µM | > 100 µM | > 100 µM | – | – | – | – | – | – | – | – | – | –
10 | CN(C)/N=N/c1nc[nH]c1C(N)=O | – | > 1000 µM | – | > 1000 µM | – | > 1000 µM | – | > 1000 µM | > 1000 µM | 85 µM and > 745 µM | 6.81 µM | 35.9 µM | 17.8 µM | 59.4 µM | 232 µM | 60.6 µM | > 147 µM | 40.1 µM | 139 µM | 4.16 µM
11 | [N-]=[N+]=Nc1c([N+](=O)[O-])c(=O)n2c3c(cccc13)CCC2 | 11.5 µM | 35.1 µM | 5.58 µM | 35.1 µM | 45.5 µM | 25.9 µM | > 84.5 µM | 27 µM | 20.9 µM | 4.56 µM | – | – | – | – | – | – | – | – | – | –
12 | COc1ccc(C2=NN=C3C(c4ccccc4)=Nc4ccccc4N3C2)cc1 | > 100 µM | – | 33.4 µM | > 100 µM | 90.1 µM | > 100 µM | > 100 µM | 45.6 µM | 70.7 µM | 38.5 µM | – | – | – | – | – | – | – | – | – | –
13 | CCOC(=O)/C=C(\C(=O)OCC)n1ccc(=O)[nH]c1=O | 34.4 µM | > 53.4 µM | 12.4 µM | 52.2 µM | > 93 µM | 26.4 µM | > 84.5 µM | > 52.3 µM | 8.24 µM | 6.2 µM | – | – | – | – | – | – | – | – | – | –
14 | CC(C)(C)OC(=O)NCC(=O)N1CCN(C(=O)CNC(=O)OC(C)(C)C)CC1 | > 100 µM | > 100 µM | > 100 µM | – | > 100 µM | > 100 µM | > 100 µM | > 100 µM | > 100 µM | > 100 µM | – | – | – | – | – | – | – | – | – | –
15 | CCOC(=O)N1CCC(=C2c3ccc(Cl)cc3CCc3cccnc32)CC1 | 32.9 µM | 32.5 µM | 33.3 µM | 18.9 µM | 23.6 µM | 24.4 µM | > 100 µM | 17.1 µM | 21.6 µM | 22.9 µM | – | – | – | – | – | – | – | – | – | –
16 | Oc1cc(Br)cc2cc(Cl)cnc12 | 26 µM | > 40.6 µM | 7.49 µM | 32.6 µM | 10 µM | 45.1 µM | > 56.1 µM | 12.8 µM | > 54.9 µM | 2.75 µM | – | – | – | – | – | – | – | – | – | –
17 | C=C(C)CNC(=S)N(N)c1ccc2ccccc2c1 | > 100 µM | > 100 µM | > 100 µM | > 100 µM | > 100 µM | > 100 µM | > 100 µM | > 100 µM | > 100 µM | > 100 µM | – | – | – | – | – | – | – | – | – | –
18 | CC(C)(C)CC(C)(C)c1ccc(O)c(C[N+](C)(C)[O-])c1 | > 100 µM | > 100 µM | > 100 µM | > 100 µM | > 100 µM | > 100 µM | > 100 µM | > 100 µM | > 100 µM | 99.6 µM | – | – | – | – | – | – | – | – | – | –
19 | S=c1[nH]c2ccc(I)cc2c(=S)n1Cc1ccccc1 | 12.1 µM | 53.6 µM | 13.4 µM | 16.3 µM | 25.5 µM | 13.4 µM | > 100 µM | > 100 µM | 25.2 µM | 5.96 µM | – | – | – | – | – | – | – | – | – | –
20 | CCC[C@@H]1C(=O)N=C(N)N1C(=O)OCc1ccccc1 | > 100 µM | > 100 µM | > 100 µM | > 100 µM | > 100 µM | > 100 µM | – | > 100 µM | > 100 µM | > 100 µM | – | – | – | – | – | – | – | – | – | –
21 | C[N+](C)(CCNC(=O)c1cccc2cc3ccccc3nc12)Cc1ccc([N+](=O)[O-])s1 | > 25 µM | > 25 µM | > 25 µM | – | > 25 µM | > 25 µM | > 25 µM | – | > 25 µM | > 25 µM | – | – | – | – | – | – | – | – | – | –
22 | CCOC(=O)C(NC(=O)OC(C)(C)C)C(=O)OCC | > 100 µM | > 100 µM | > 100 µM | > 100 µM | > 100 µM | > 100 µM | > 100 µM | > 100 µM | > 100 µM | – | – | – | – | – | – | – | – | – | – | –
